Reference: patent US12029728B2, “Small molecules with anti-protozoan activity” (New Mexico Tech University Research Park Corporation, priority 2018, dated 2024)

Tests used:
U87 cells = assay: MTT cell survival assay, U87; format: cell-based; conditions: Homo sapiens, U-87 MG, 48 hours at 37° C., read-out: IC50 (GI50), cell survival
Procedure: (§1) The GI50 (IC50), the concentration at which 50% cell survival is seen upon treatment with a compound, was determined for Compound 2 in Jurkat, U87, HeLa, and ARPE cells. Cells were cultured in 96-well plates and incubated with 50 μM, 25 μM, 12.5 μM, 6 μM, 3 μM, 1.5 μM, or 0 μM of Compound 2 for 48 hours at 37° C. Following the incubation period, a 3-(4,5-dimethylthiazol-2-yl)-2,5-diphenyl tetrazolium bromide (MTT) assay was performed. In brief, a 10% volume of MTT was added to each well. Cells were incubated with MTT for 2 hours, at which time cell supernatant was removed and cells were taken into 100 μL DMSO. The absorbance of cell solutions was then read at 595 nm. A decrease in absorbance indicated a decrease in cell survival.

[1] = system: T. cruzi-infected ARPE cells; assay: Treatment of T. cruzi-infected ARPE cells, imaging; format: cell-based, Trypanosoma cruzi; conditions: for amastigotes in ARPE cultures: 5 days, EVOS imaging; for T. cruzi seen in EVOS image: day 12
Procedure: Four confocal dishes were prepared with 10,000 ARPE cells, which were adhered overnight at 37° C. The four dishes were ARPE control cells, non-infected but 5 μM Compound 2-treated cells, non-treated but infected cells, and infected cells treated with 5 μM Compound 2. For the infected dishes, ARPE media was removed and replaced with 2 mL of infectious amastigotes and trypomastigotes from the ARPE passaged plate. The dishes were then incubated for 2 hours at 37° C. The treated dishes were incubated with 5 μM Compound 2 for 5 days at 37° C., while untreated dishes were incubated in fresh media without Compound 2 for 5 days at 37° C. After the 5-day period, cells were washed 3 times in ARPE media and fixed with 1 mL 4% paraformaldehyde. Cells were visualized using an EVOS cell imaging system. Amastigotes appeared as small, dense, and mostly birefringent in images.
The experiment above was repeated using 1 μM Compound 2.
Four confocal dishes with 10,000 ARPE cells were prepared and adhered overnight at 37° C. The four dishes were: 1) ARPE control cells; 2) non-infected cells treated with 1 μM Compound 2; 3) untreated infected cells; and 4) T. cruzi-infected cells treated with 1 μM Compound 2. For the infected dishes, ARPE media was removed and replaced with 2 mL of infectious amastigotes and trypomastigotes expressing tdTomato (from ARPE passaged plate). The dishes were then incubated overnight for 7 days at 37° C. The untreated dishes were incubated in fresh media without Compound 2 for 7 days at 37° C. After the 7-day incubation period, cells were washed 3 times in ARPE media and fixed with 1 mL 4% paraformaldehyde. tdTomato fluorescence, which is indicative of viable T. cruzi, was then observed via fluorescence microscopy.
ARPE cells were plated in confocal dishes (20,000 cells per dish) and incubated overnight at 37° C. Cells were infected with T. cruzi by incubating cells with T. cruzi amastigotes and trypomastigotes expressing tdTomato (˜2×10^5 cells in total) for 24 hours at 37° C. Uninfected cells served as controls. Following the T. cruzi incubation period, extracellular parasites were removed, and the medium was replaced with DMEM/F12 culture media with or without 1 μM Compound 2. The cells were incubated further for 24 hours at 37° C. Cells were then treated two more times with fresh DMEM/F12 culture media with or without 1 μM Compound 2 and incubated for 24 hours at 37° C. Following fixation of cells in 4% paraformaldehyde, plates were imaged for tdTomato fluorescence, which is indicative of viable T. cruzi, such that the effects of repeated Compound 2 treatment could be compared to a single treatment with Compound 2.
ARPE cells were plated in confocal dishes (20,000 cells per dish) and incubated overnight at 37° C. Cells were infected with T. cruzi by incubating cells with T. cruzi amastigotes and trypomastigotes expressing tdTomato (˜2×10^5 cells in total) for 24 hours at 37° C. before washing dishes three times with DMEM/F12 culture media. Uninfected plates served as controls. The dishes were then treated with 2 μM Compound 2 or left untreated as a control and incubated further for 5 days at 37° C. The treated dish received a single treatment of Compound 2 on day 1. Dishes were washed twice with DMEM/F12 media and fixed in 4% paraformaldehyde before being imaged using confocal microscopy. […] The other Compound 2 dishes that were not incubated with T. cruzi a second time were used as controls. Following fixation of cells in 4% paraformaldehyde, tdTomato fluorescence of the cells was assessed using confocal microscopy.
ARPE cells were plated in confocal dishes (20,000 cells per dish) and incubated overnight at 37° C. Dishes were incubated with T. cruzi amastigotes and trypomastigotes expressing tdTomato (˜2×10^5 cells) for 48 hours at 37° C. Untreated cells served as controls. Cells were then washed 3 times with cell medium, treated with 5 μM Compound 2 or left untreated as a control and incubated further for 2 days at 37° C. […]

[2] = system: T. cruzi-infected THP-1 cells; assay: T. cruzi-infected THP-1 derived macrophages, confocal microscopy; format: cell-based, Trypanosoma cruzi; conditions: 2 μM, 7 days
Procedure: Macrophages derived by differentiation of THP-1 cells with phorbol myristate acetate were plated in confocal dishes (about 5,000 cells per dish) and incubated overnight at 37° C. Dishes were incubated with T. cruzi amastigotes and trypomastigotes expressing tdTomato (˜2×10^5 cells) for 24 hours at 37° C. Uninfected plates served as controls. After the 24-hour T. cruzi incubation period, parasites were removed, and medium was re-plated with DMEM/F12 culture media with 2 μM Compound 2 (or left untreated as a control) for 7 days at 37° C. Following fixation of cells in 4% paraformaldehyde, tdTomato fluorescence (which is indicative of viable T. cruzi) in cells was then assessed via confocal microscopy.

L. major promastigotes = assay: L. major promastigote viability, propidium iodide flow cytometry; format: cell-based, Leishmania major; conditions: 50 μM, 48 hours at 24° C.
Procedure: 5×10^5 L. major promastigotes were treated with vehicle control (DMSO), […], 5 μM Compound 5, 50 μM Compound 2, 50 μM Compound 5, or […] for 48 hours at 24° C. Promastigote viability was then assessed via a propidium iodide flow cytometry assay. Propidium iodide is only taken up by dead cells, and the presence of fluorescence in a promastigote sample reflects compound efficacy.

ARPE cells = assay: MTT cell survival assay, ARPE; format: cell-based; conditions: Homo sapiens, 48 hours at 37° C., read-out: IC50 (GI50), cell survival
Procedure: as §1

O=C(NO)C(c1ccccc1)c1c(-c2ccc3ccccc3c2)[nH]c2ccccc12 (centres unmarked) [Compound 2, N-hydroxy-2-(2-(naphthalen-2-yl)-1H-indol-3-yl)-2-phenylacetamide]
IC50 (U87 cells): 11.5 ± 0.41 µM | amastigotes in ARPE cultures ([1]; 1 μM): absent | intracellular T. cruzi parasites ([1]; 1 μM, 7 days, tdTomato fluorescence): eradicated | eradication of intracellular T. cruzi and reinfection ([1]; 2 μM, second incubation with T. cruzi): eradicated intracellular T. cruzi and protected cells from reinfection | T. cruzi in ARPE cells (CherryTomato fluorescence) ([1]; 2 μM, two days): eradicated T. cruzi | T. cruzi seen in EVOS image ([1]; 5 μM for 2 days): Small amounts of T. cruzi dots were observed | intracellular parasites ([1]; 5 μM, 2 days, after 48 hours infection): killed intracellular parasites | amastigotes in ARPE cultures ([1]; 5 μM): absent | T. cruzi seen in EVOS image ([1]; 10 μM for 2 days): could not be seen | state of infected ARPE cells after treatment ([1]; 4 treatments with 2 μM over 4 days): cured | T. cruzi-infected cell foci in fluorescence images ([1]; 5 (μM) for 2 days, day 17): Only two T. cruzi-infected cell foci were found | tdTomato fluorescence ([1]; 10 (μM) for 2 days, day 17): no tdTomato fluorescence was observed | long term treatment efficacy against T. cruzi infection ([1]; daily 2 μM for 5 days, then 5 days without treatment): long-term full cure | parasite death ([1]; one treatment with 2 μM, 5-day incubation): full parasite death | T. cruzi infection after treatment ([1]; repeated treatment (three times) with 1 μM, every 24 hours): eradicated the T. cruzi infection | intracellular T. cruzi and re-infection ([1]; single dose of 2 μM, 2 days): killed intracellular T. cruzi and protected the cells from re-infection | T. cruzi infection after treatment ([1]; single treatment with 1 μM): only a small portion of the T. cruzi infection remaining | intracellular proliferation of T. cruzi [2]: prevented intracellular proliferation of T. cruzi | efficacy on L. major promastigote survival (L. major promastigotes): higher efficacy than MTF or the vehicle control | IC50 (ARPE cells): 14.8 ± 1.13 µM
